EP4585587A1, “PROPIONIC ACID DERIVATIVE AND USE THEREOF IN MEDICINE” (priority 2022, dated 2024)
Structures can show the parent of a compound that is named as a salt.

Assays:
integrin α4β1 = assay: Integrin α4β1-mediated cell adhesion assay (Jurkat cells on VCAM); assay type: cell-based; conditions: for α4β1/α4β7: selectivity ratio of Jurkat (α4β1)/VCAM-1 IC50 to RPMI-8866 (α4β7)/MadCAM-1 IC50; for IC50: Jurkat cells, VCAM coated plate, read-out: Jurkat (α4β1)/VCAM-1 IC50
Method: VCAM was formulated into a final concentration of 0.5 µg/ml with a coating buffer, 50 µl of the solution was transferred to a 96-well plate, and the plate was coated with same at 4°C overnight. The plate was washed with coating buffer three times, then 150 µl of a blocking solution (coating buffer containing 1% BSA) was added, and the plate was blocked at 37°C for 1 h. Jurkat cells were collected, washed twice using DPBS buffer, and then resuspended to 4 × 10^6 cells/ml with an action buffer. 50 µl of the cell suspension was transferred to a 96-well plate so that the cell density reached 2 × 10^5 cells/well. Then 1 µl of the test compound at different concentration or DMSO was added and the plate was incubated at 37°C for 1 h. The plate was washed with coating buffer to remove non-adherent cells. 50 µl of a substrate (4-nitrophenyl-N-acetyl-β-D-glucosaminide) was added and the plate was incubated at 37°C for 2 h. Finally, 90 µl of a termination solution (50 mM glycine and 5 mM EDTA, pH 10.4) was added. The OD value of the plate was read at 405 nm. • Coating buffer: DMEM+ 20 mM HEPES+ 0.4 mM MnCl2 • Action buffer: DMEM+ 20 mM HEPES+ 0.1% BSA+0.4 mM MnCl2 • DMEM: dulbecco's modified eagle medium; • HEPES: 2-[4-(2-hydroxyethyl)piperazin-1-yl]ethanesulfonic acid Table 1 Results of effects of compounds on α4β7- and α4β1-mediated cell adhesion

[1] = Pharmacokinetic test in mice; assay type: in vivo; conditions: male BALB/c mice, plasma
Method: Experimental animals: male BALB/c mice, 20-25 g, 6 mice/compound. purchased from Chengdu Ddossy Experimental Animals Co., Ltd.
Experimental design: on the day of the test, 6 BALB/c mice were randomly grouped according to their body weights. The animals were fasted with water available for 12 to 14 h one day before the administration and were fed 4 h after the administration. Table 2. Administration information
Before and after the administration, 0.06 mL of blood was taken from the orbit of the animals under isoflurane anesthesia and placed in an EDTAK2 centrifuge tube. The blood was centrifuged at 5000 rpm and 4°C for 10 min to collect plasma. The blood collection time points for the intravenous group and intragastric group were both 0 min, 5 min, 15 min, 30 min, 1 h, 2 h, 4 h, 6 h, 8 h, and 24 h. Before analysis and detection, all samples were stored at -80°C, and the samples were quantitatively analyzed by LC-MS/MS.

[2] = Test of stability in liver microsomes; assay type: in vitro ADME; conditions: Monkey liver microsomes, 1 µM, 37°C, NADPH
Method: (§1) In this experiment, liver microsomes of three species, including monkey, rat and mouse, were used as in vitro models to evaluate the metabolic stability of the test compound.
(§2) At 37°C, 1 µM of the test compound was co-incubated with microsomal protein and coenzyme NADPH. At given time points of the reaction (5 min, 10 min, 20 min, 30 min, and 60 min), the reaction was terminated by adding ice-cold acetonitrile containing an internal standard. The LC-MS/MS method was used to measure the concentration of the test compound in the sample. T1/2 was calculated using the natural logarithm (In) of the residual rate of the drug in the incubation system and the incubation time. In addition, the intrinsic clearance in liver microsomes CLint(mic) and the intrinsic clearance in liver CLint(Liver) were further calculated.

[3] = Test of stability in liver microsomes; assay type: in vitro ADME; conditions: Rat liver microsomes, 1 µM, 37°C, NADPH
Method: as §1, §2

[4] = Test of stability in liver microsomes; assay type: in vitro ADME, mouse; conditions: Mice liver microsomes, 1 µM, 37°C, NADPH
Method: as §1, §2

integrin α4β7 = target: T1, integrin α4β7 (Homo sapiens, UniProt P13612+P26010); assay: Integrin α4β7 cell adhesion assay (RPMI8866 cells on MAdCAM-1); assay type: cell-based; conditions: RPMI8866 cells, MAdCAM-1 coated plate; reported as class symbol; read-out: RPMI-8866 (α4β7)/MadCAM-1 IC50
T1 sequence (P13612 34-1032): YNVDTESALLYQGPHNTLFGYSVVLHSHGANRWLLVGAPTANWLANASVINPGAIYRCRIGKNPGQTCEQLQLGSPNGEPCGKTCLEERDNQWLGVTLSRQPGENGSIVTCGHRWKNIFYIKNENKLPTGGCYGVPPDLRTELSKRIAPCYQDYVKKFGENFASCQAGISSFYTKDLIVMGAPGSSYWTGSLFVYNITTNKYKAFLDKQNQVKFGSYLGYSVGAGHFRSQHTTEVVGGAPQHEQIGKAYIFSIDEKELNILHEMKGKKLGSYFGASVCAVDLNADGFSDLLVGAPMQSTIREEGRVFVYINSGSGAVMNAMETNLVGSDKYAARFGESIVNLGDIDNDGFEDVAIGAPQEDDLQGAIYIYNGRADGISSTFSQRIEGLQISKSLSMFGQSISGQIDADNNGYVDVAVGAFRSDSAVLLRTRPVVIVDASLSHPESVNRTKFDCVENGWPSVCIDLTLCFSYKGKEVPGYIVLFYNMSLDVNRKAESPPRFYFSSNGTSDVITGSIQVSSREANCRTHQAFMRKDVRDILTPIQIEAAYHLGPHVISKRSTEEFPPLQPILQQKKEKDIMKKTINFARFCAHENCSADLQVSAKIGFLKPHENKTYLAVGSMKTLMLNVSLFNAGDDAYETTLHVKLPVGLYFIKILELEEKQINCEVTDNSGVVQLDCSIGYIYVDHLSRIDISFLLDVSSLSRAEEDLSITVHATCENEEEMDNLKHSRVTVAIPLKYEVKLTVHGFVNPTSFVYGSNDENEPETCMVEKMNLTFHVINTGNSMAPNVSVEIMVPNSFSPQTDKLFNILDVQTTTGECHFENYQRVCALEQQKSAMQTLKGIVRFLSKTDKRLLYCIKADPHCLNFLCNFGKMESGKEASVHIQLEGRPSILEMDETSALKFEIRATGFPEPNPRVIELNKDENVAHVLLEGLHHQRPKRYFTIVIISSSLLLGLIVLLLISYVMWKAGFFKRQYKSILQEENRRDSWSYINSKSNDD
T1 sequence (P26010 20-798): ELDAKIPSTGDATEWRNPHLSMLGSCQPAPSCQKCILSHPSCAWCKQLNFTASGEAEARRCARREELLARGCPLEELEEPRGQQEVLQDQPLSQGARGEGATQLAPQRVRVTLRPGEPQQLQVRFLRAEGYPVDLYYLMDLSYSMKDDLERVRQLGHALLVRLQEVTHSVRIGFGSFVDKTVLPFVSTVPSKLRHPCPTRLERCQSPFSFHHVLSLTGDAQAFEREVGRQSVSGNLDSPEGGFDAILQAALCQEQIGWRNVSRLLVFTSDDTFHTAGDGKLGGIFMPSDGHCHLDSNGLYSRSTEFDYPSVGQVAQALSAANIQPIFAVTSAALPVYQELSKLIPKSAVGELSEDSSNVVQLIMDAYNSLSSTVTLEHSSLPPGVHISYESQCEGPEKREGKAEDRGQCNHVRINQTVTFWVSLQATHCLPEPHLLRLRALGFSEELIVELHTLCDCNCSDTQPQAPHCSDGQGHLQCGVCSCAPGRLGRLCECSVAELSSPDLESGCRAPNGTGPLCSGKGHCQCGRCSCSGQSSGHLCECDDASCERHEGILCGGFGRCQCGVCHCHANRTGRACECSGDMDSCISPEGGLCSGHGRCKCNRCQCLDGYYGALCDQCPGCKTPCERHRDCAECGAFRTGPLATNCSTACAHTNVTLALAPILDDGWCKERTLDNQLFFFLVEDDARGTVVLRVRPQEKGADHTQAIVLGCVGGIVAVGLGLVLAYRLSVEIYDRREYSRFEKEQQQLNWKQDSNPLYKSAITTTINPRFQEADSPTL
Method: MAdCAM-1 was formulated with TBS buffer to a final concentration of 2 µg/ml, 50 µl of the solution was transferred to a 96-well plate, and the plate was coated with same at 4°C overnight. The plate was washed with TBS buffer three times, then 150 µl of a blocking solution (TBS buffer containing 1% BSA) was added, and the plate was blocked at 37°C for 1 h. […] 50 µl of the cell suspension was transferred to a 96-well plate so that the cell density reached 2×10^5 cells/well. Then 1 µl of the compound at different concentrations or DMSO was added and the plate was incubated at 37°C for 1 h or 2 h. The plate was washed with TBS buffer to remove non-adherent cells. 50 µl of a substrate (4-nitrophenyl-N-acetyl-β-D-glucosaminide) was added and the plate was incubated at 37°C for 2 h. […] The IC50 value was calculated using GraphPad Prism 6 software.

Row | Compound | α4β1/α4β7 (integrin α4β1) | CL ([1]; IV: 1 mg/kg) [mL/min/kg] | AUC ([1]; PO: 10 mg/kg) [ng·h/mL] | Test compound after 1h incubation Remaining% (T=60min) [2] [%] | Test compound after 1h incubation Remaining% (T=60min) [3] [%] | Test compound after 1h incubation Remaining% (T=60min) [4] [%] | IC50 (integrin α4β7) [nM] | IC50 (integrin α4β1) [nM]
1 | Cc1cc(-c2c(C)cc(F)cc2C)cc([C@H](CC(=O)O)NC(=O)[C@H](CC(C)C)n2cc(CCN(C)C)c(C(F)(F)F)cc2=O)c1F [Control compound A] | 50.4 | 56.0 | 830 | 1.8 | 31.9 | 42.6 |  | 
2 | Cc1cccc(C)c1-c1c(F)c(C(CC(=O)O)NC(=O)C(CC(C)C)n2cc(CCN(C)C)c(C(F)(F)F)cc2=O)c(F)c2c1CCC2 (single isomer, unassigned) [Trifluoroacetate salt of compound 20-2] | 648 |  |  |  |  |  | < 10 | > 500
3 | CC#Cc1cc(-c2c(C)cccc2C)c(F)c(C(CC(=O)O)NC(=O)C(CC(C)C)n2cc(CC3CN(C(C)C)C3)c(C(F)(F)F)cc2=O)c1F (single isomer, unassigned) [Trifluoroacetate salt of compound 18-2] | 258 |  |  |  |  |  | < 10 | > 500
